Measured values: patent publication US20250127759A1, “METHODS AND DOSING REGIMENS COMPRISING A CDK2 INHIBITOR FOR THE TREATMENT OF CANCER” (PFIZER INC., priority 2021, published 2025)
“And” between values parts separate entries of the source, which are not always exact repeats. Identical values can stand only once. Like-named read-outs stand apart in the source and are kept apart here.

Legend:
ST941PBR PDX = experiment: In vivo efficacy, palbociclib-resistant ST941PBR PDX model; settings: Day 28, 150 mg/kg BID PO, 150 mg/kg
Method: Female NSG mice (Jackson Lab) were subcutaneously implanted with fragment (27 mm^3 to 64 mm^3 size) into the dorsal region. All mice for T47D, HCC1428 and ST941 PBR studies were supplemented with 8.5 μg/mL estradiol water (β-Estradiol Sigma-Aldrich, cat #E2758-5G) and gave ad libitum till end of study. For the in vivo efficacy studies, tumor volume and body weights were measured twice a week. Tumor volume was calculated using the [(Length×Width×Width)/2)] formula. TGI was calculated as 100*(1−ΔT/ΔC). The ΔC (ΔT) was obtained by subtracting the mean tumor burden in the vehicle (treated) group on the first day of treatment (Day 0) from the mean tumor burden in vehicle (treated) group on the assessment day. Statistical analysis was performed using ANCOVA when the mean tumor volume in vehicle treated mice reached tumor cutoff size.
The ST941 PBR palbociclib resistant model was obtained from XENOSTART™ LLC, San Antonio, Texas. We established model in house by continuous treatment of the ST941 PBR tumor bearing mice with PD-0332991 at 50 mg/kg, PO QD plus fulvestrant at 10 mg/kg, SC twice in the first week, then weekly thereafter. To propagate donors for the TGI study, tumors were transplanted to recipient mice. One week after the re-implantation, the recipient mice received continuous treatment with palbociclib plus fulvestrant (dosing schedule described above). After 1 to 2 serial in vivo propagation with the same treatment regimen, the resistant tumors in the range of 700 to 800 mm^3 were re-implanted for a study expansion. The remaining tumor fragments were viably frozen for future use.
The live donor mice were established by implanting ST941 PBR (p11) tumor fragments. Once reaching a range of 700 to 800 mm^3, the donor tumors were subsequently transplanted into secondary recipient mice for a study expansion. To maintain the resistant clones, the ST941 PBR tumor bearing mice were treated with PD-0332991 at 50 mg/kg, PO. QD plus fulvestrant at 10 mg/kg, SC twice in the first week, then weekly afterwards for 10 weeks. […] TGI was assessed on Day 28 post first dose.

[1] = Phase 1/2a study, plasma pharmacokinetics of PF-07104091; format: in vivo, human
From the text: Blood samples will be collected for measurement of plasma concentrations of PF-07104091 as specified in the protocol. Samples will be used to evaluate the PK of PF-07104091. Samples collected for analyses of PF-07104091 plasma concentration may also be used to evaluate safety or efficacy aspects related to concerns arising during or after the study, for metabolite identification and/or evaluation of the bioanalytical method, or for other internal exploratory purposes.
Plasma PF-07104091 concentrations will be summarized descriptively (n, mean, standard deviation, coefficient of variation, median, minimum, maximum, geometric mean and its associated coefficient of variation) by dose, cycle, day and nominal time. Individual participant plasma PF-07104091 concentration-time data within a dose interval (with exception of the food effect substudy) after Cycle 1 Day 1 and Cycle 1 Day 15 will be analyzed using noncompartmental methods to determine single and multiple dose PK parameters. For participants in the food effect substudy, individual plasma PF-07104091 concentration-time data after Cycle 1 Day 15 and Cycle 1 Day 16 will be analyzed using noncompartmental methods to determine multiple dose PK parameters. For Part 1 of the study, single dose PK parameters to be estimated will include the Cmax, Tmax, and AUClast, and if data permit, t1/2, CL/F, and Vz/F. Multiple dose PK parameters to be estimated will include Cmax,ss, Tmax,ss, AUCT,ss, Cmin,ss, CL/F,ss, and if data permit, V/Fss, t1/2, and Rac. For Part 2 of the study (with exception of the food effect substudy), single dose PK parameters to be estimated will include Cmax, Tmax and AUClast. Multiple dose PK parameters to be estimated will include Cmax,ss, Tmax,ss, AUClast, Cmin,ss, and Rac. The single dose and steady state PK parameters will be summarized descriptively (n, mean, standard deviation, coefficient of variation, median, minimum, maximum, geometric mean and its associated coefficient of variation) by dose level, cycle and day. For participants in the food effect substudy, multiple dose PK parameters to be estimated will include Cmax,ss, AUCT,ss, Tmax,ss, Cmin,ss, CL/Fss, and if data permit, V/Fss and t1/2.
An ongoing Phase 1/2a, open-label, multicenter, multiple dose study is being conducted to determine the safety, tolerability, PK, PD, and preliminary anti-tumor activity of PF-07104091 as a single agent and in combination with endocrine therapy. PF-07104091 is administered orally twice daily (BID) during 28-day cycles.
Preliminary concentration-time data of PF-07104091 following single and multiple oral administration at 75 mg BID to 500 mg BID as monotherapy or in combination with endocrine therapy alone or in combination with palbociclib and endocrine therapy were available from 44 participants with advanced solid tumors and HR-positive HER2-negative advanced or metastatic breast cancer. The preliminary concentration-time data were analyzed by noncompartmental approach using actual PK sampling times.
[…] Individual values are listed when the number of participants with available parameters is less than 3.

[2] = Cycle 1 Day 1, single oral dose, 375 mg BID monotherapy, individual values
[3] = Cycle 1 Day 15, repeated BID oral, 75 mg BID monotherapy, individual values

Q: What does the source list for `COCc1cc(C(=O)Nc2cc([C@H]3CC[C@@H](OC(=O)NC(C)C)C3)[nH]n2)n(C)n1` [PF-07104091, (1R,3S)-3-[3-({[3-(methoxymethyl)-1-methyl-1H-pyrazol-5-yl]carbonyl}amino)-1H-pyrazol-5-yl]cyclopentyl propan-2-ylcarbamate]?
A: TGI % (ST941PBR PDX): 34%; AUClast [1, 2]: 14424 ng·h/mL; Cmax [1, 2]: 2890 ng/mL; Tmax [1, 2]: 4.0, 4.0 h; Rac ([1]; Cycle 1 Day 15, repeated BID oral, 75 mg BID (1B), with palbociclib and fulvestrant, arithmetic mean ± SD): 1.2 ± 0.1; AUClast [1, 3]: 2321, ng*h/mL; Cmax [1, 3]: 398, ng/mL; Rac [1, 3]: 1.4 and 2.7; Rac ([1]; Cycle 1 Day 15, repeated BID oral, 150 mg BID monotherapy, arithmetic mean ± SD): 1.8 ± 0.2; Rac ([1]; Cycle 1 Day 15, repeated BID oral, 225 mg BID monotherapy, arithmetic mean ± SD): 1.8 ± 0.7; Rac ([1]; Cycle 1 Day 15, repeated BID oral, 300 mg BID monotherapy, arithmetic mean ± SD): 1.9 ± 1.1; Rac ([1]; Cycle 1 Day 15, repeated BID oral, 500 mg BID monotherapy, individual value, N = 1): 1.1; accumulation ([1]; following repeated BID administration): moderate accumulation; half-life ([1]; human, plasma, po, 75 mg BID to 500 mg BID, read-out: average half-life (converted)): ~2 h; half-life ([1]; human, plasma, po, 75 mg, Cycle 1 Day 1, single oral dose, 75 mg BID (1B), with palbociclib and fulvestrant, arithmetic mean ± SD, read-out: t1/2 (converted)): 1.9 ± 0.2 h; AUC(0-t) ([1]; human, plasma, po, 75 mg, Cycle 1 Day 1, single oral dose, 75 mg BID (1B), with palbociclib and fulvestrant, geometric mean (CV %)): 2760 ng·h/mL; Cmax ([1]; human, plasma, po, 75 mg, Cycle 1 Day 1, single oral dose, 75 mg BID (1B), with palbociclib and fulvestrant, geometric mean (CV %), read-out: Cmax): 694 ng/mL; Tmax ([1]; human, plasma, po, 75 mg, Cycle 1 Day 1, single oral dose, 75 mg BID (1B), with palbociclib and fulvestrant, median (range), read-out: Tmax): 1.6 h; half-life ([1]; human, plasma, po, 75 mg, Cycle 1 Day 1, single oral dose, 75 mg BID (1C), with palbociclib and letrozole, arithmetic mean ± SD, read-out: t1/2 (converted)): 1.6 ± 0.5 h; AUC(0-t) ([1]; human, plasma, po, 75 mg, Cycle 1 Day 1, single oral dose, 75 mg BID (1C), with palbociclib and letrozole, geometric mean (CV %)): 2460 ng·h/mL; Cmax ([1]; human, plasma, po, 75 mg, Cycle 1 Day 1, single oral dose, 75 mg BID (1C), with palbociclib and letrozole, geometric mean (CV %), read-out: Cmax): 648 ng/mL; Tmax ([1]; human, plasma, po, 75 mg, Cycle 1 Day 1, single oral dose, 75 mg BID (1C), with palbociclib and letrozole, median (range), read-out: Tmax): 0.5 h; half-life ([1]; human, plasma, po, 75 mg, Cycle 1 Day 1, single oral dose, 75 mg BID monotherapy, arithmetic mean ± SD, read-out: t1/2 (converted)): 2.4 ± 0.7 h; AUC(0-t) ([1]; human, plasma, po, 75 mg, Cycle 1 Day 1, single oral dose, 75 mg BID monotherapy, geometric mean (CV %)): 1750 ng·h/mL; Cmax ([1]; human, plasma, po, 75 mg, Cycle 1 Day 1, single oral dose, 75 mg BID monotherapy, geometric mean (CV %), read-out: Cmax): 362 ng/mL; Tmax ([1]; human, plasma, po, 75 mg, Cycle 1 Day 1, single oral dose, 75 mg BID monotherapy, median (range), read-out: Tmax): 2 h; half-life ([1]; human, plasma, po, 75 mg, Cycle 1 Day 15, repeated BID oral, 75 mg BID (1B), with palbociclib and fulvestrant, arithmetic mean ± SD, read-out: t1/2 (converted)): 3.6 ± 0.9 h; AUC(0-t) ([1]; human, plasma, po, 75 mg, Cycle 1 Day 15, repeated BID oral, 75 mg BID (1B), with palbociclib and fulvestrant, geometric mean (CV %)): 3080 ng·h/mL; Cmax ([1]; human, plasma, po, 75 mg, Cycle 1 Day 15, repeated BID oral, 75 mg BID (1B), with palbociclib and fulvestrant, geometric mean (CV %), read-out: Cmax): 698 ng/mL; Tmax ([1]; human, plasma, po, 75 mg, Cycle 1 Day 15, repeated BID oral, 75 mg BID (1B), with palbociclib and fulvestrant, median (range), read-out: Tmax): 1.2 h; AUC(0-t) ([1]; human, plasma, po, 75 mg, Cycle 1 Day 15, repeated BID oral, 75 mg BID monotherapy, individual values): 3580 ng·h/mL; Cmax ([1]; human, plasma, po, 75 mg, Cycle 1 Day 15, repeated BID oral, 75 mg BID monotherapy, individual values, read-out: Cmax): 714 ng/mL; Tmax ([1]; human, plasma, po, 75 mg, Cycle 1 Day 15, repeated BID oral, 75 mg BID monotherapy, individual values, read-out: Tmax): 1.1 h; AUC(0-t) ([1]; human, plasma, po, 150 mg, Cycle 1 Day 1, single oral dose, 150 mg BID monotherapy, geometric mean (CV %)): 4480 ng·h/mL; Cmax ([1]; human, plasma, po, 150 mg, Cycle 1 Day 1, single oral dose, 150 mg BID monotherapy, geometric mean (CV %), read-out: Cmax): 739 ng/mL
